Assay results taken from ChEMBL document CHEMBL5608215, “Development of amphipathic derivatives of thymol and carvacrol as potent broad-spectrum antibacterial agents” (Eur J Med Chem, 2024).
Active and inactive are the calls of the source. The calls are words filed in the database; no cut-off is given here.

Tests used:
Staphylococcus aureus [1] = assay: Antibacterial activity against Staphylococcus aureus ATCC29213 in plasma pretreated plasma with compound for 6 hrs followed by bacterial infection into plasma; assay type: functional, organism-based
[2] = Toxicity in KM mouse assessed as histopathological abnormality in heart upto 40 mg/kg, ip measured for 24 hrs by H and E staining based analysis; assay type: organism-based; conditions: in vivo
Staphylococcus aureus [3] = assay: Antibacterial activity against Staphylococcus aureus ATCC29213 by CLSI based serial dilution method; assay type: functional
Enterococcus faecalis [4] = assay: Antibacterial activity against Enterococcus faecalis ATCC29212 by CLSI based serial dilution method; assay type: functional
Enterococcus = assay: Antibacterial activity against vancomycin-resistant Enterococcus ATCC51299 by CLSI based serial dilution method; assay type: functional
Escherichia coli [5] = assay: Antibacterial activity against Escherichia coli ATCC25922 by CLSI based serial dilution method; assay type: functional
Pseudomonas aeruginosa [6] = assay: Antibacterial activity against Pseudomonas aeruginosa ATCC27853 by CLSI based serial dilution method; assay type: functional
Pseudomonas aeruginosa [7] = assay: Anti-biofilm activity against Pseudomonas aeruginosa ATCC27853 assessed as biofilm formation rate at 8 times MIC incubated for 48 hrs by crystal violet staining based analysis relative to control; assay type: functional
Staphylococcus aureus [8] = assay: Bactericidal activity against Staphylococcus aureus ATCC29213 incubated upto 24 hrs by time-kill assay; assay type: functional, organism-based
Escherichia coli [9] = assay: Bactericidal activity against Escherichia coli ATCC25922 incubated upto 24 hrs by time-kill assay; assay type: functional, organism-based
Staphylococcus aureus [10] = assay: Bactericidal activity against Staphylococcus aureus ATCC29213 assessed as log reduction in bacterial growth at 8 times MIC incubated for 24 hrs by time-kill assay; assay type: functional
Staphylococcus aureus [11] = assay: Bactericidal activity against Staphylococcus aureus ATCC29213 at 8 times MIC incubated for 24 hrs by time-kill assay relative to control; assay type: functional
Escherichia coli [12] = assay: Bactericidal activity against Escherichia coli ATCC25922 at 8 times MIC incubated for 12 hrs by time-kill assay relative to control; assay type: functional
Escherichia coli [13] = assay: Bactericidal activity against Escherichia coli ATCC25922 assessed as inhibition of bacterial regrowth at 8 times MIC incubated for 24 hrs by time-kill assay; assay type: functional, organism-based
Escherichia coli [14] = assay: Bactericidal activity against Escherichia coli ATCC25922 assessed as log reduction in bacterial growth at MIC incubated for 12 hrs by time-kill assay; assay type: functional
Escherichia coli [15] = assay: Bactericidal activity against Escherichia coli ATCC25922 at MIC incubated for 12 hrs by time-kill assay relative to control; assay type: functional
Escherichia coli [16] = assay: Bactericidal activity against Escherichia coli ATCC25922 at MIC incubated for 24 hrs by time-kill assay relative to control; assay type: functional
Staphylococcus aureus [17] = assay: Antibacterial activity against Staphylococcus aureus ATCC29213 assessed as cell surface wrinkling at 8 times MIC by SEM analysis; assay type: functional, organism-based
Staphylococcus aureus [18] = assay: Antibacterial activity against Staphylococcus aureus ATCC29213 assessed as leakage of cell contents at 8 times MIC by SEM analysis; assay type: functional, organism-based
Enterococcus faecalis [19] = assay: Antibacterial activity against Enterococcus faecalis ATCC29212 assessed as cell surface disruption at 8 times MIC by SEM analysis; assay type: functional, organism-based
Enterococcus faecalis [20] = assay: Antibacterial activity against Enterococcus faecalis ATCC29212 assessed as leakage of cell contents at 8 times MIC by SEM analysis; assay type: functional, organism-based
Staphylococcus aureus [21] = assay: Antibacterial activity against Staphylococcus aureus ATCC29213 assessed as cell membrane damage incubated for 8 mins by SYTOX Green uptake assay; assay type: functional, organism-based
Escherichia coli [22] = assay: Antibacterial activity against Escherichia coli ATCC25922 assessed as cell membrane damage incubated for 8 mins by SYTOX Green uptake assay; assay type: functional, organism-based
Staphylococcus aureus [23] = assay: Antibacterial activity against Staphylococcus aureus ATCC29213 assessed as cell membrane damage at 8 times MIC by NucGreen/EthD-III staining based analysis; assay type: functional, organism-based
Staphylococcus aureus [24] = assay: Antibacterial activity against Staphylococcus aureus ATCC25923 upto 32 ug/ml incubated for 16 to 18 hrs in presence of phosphatidylethanolamine; assay type: functional, organism-based; conditions: dose <= 32.0 µg/ml, time 16-18 hrs
Staphylococcus aureus [25] = assay: Antibacterial activity against Staphylococcus aureus ATCC25923 upto 32 ug/ml incubated for 16 to 18 hrs in presence of peptidoglycan; assay type: functional, organism-based; conditions: dose <= 32.0 µg/ml, time 16-18 hrs
[26] = Selectivity ratio of cytotoxicity against HUVEC cells for to MIC for Staphylococcus aureus ATCC29213; assay type: toxicity, cell-based; conditions: human
[27] = Selectivity index, ratio of HC50 against rabbit RBC for to MIC for Escherichia coli ATCC25922; assay type: toxicity; conditions: rabbit red blood cells, pooled result: one value given for 6 cell lines, strains, targets or settings, read-out: Selectivity Index
Escherichia coli [28] = assay: Antibacterial activity against Escherichia coli ATCC25922 in plasma pretreated plasma with compound for 6 hrs followed by bacterial infection into plasma; assay type: functional, organism-based
[29] = Toxicity in KM mouse assessed as normal condition upto 40 mg/kg, ip measured for 24 hrs; assay type: organism-based; conditions: in vivo
[30] = Toxicity in KM mouse assessed as histopathological abnormality in lung upto 40 mg/kg, ip measured for 24 hrs by H and E staining based analysis; assay type: organism-based; conditions: in vivo
[31] = Toxicity in KM mouse assessed as histopathological abnormality in kidney upto 40 mg/kg, ip measured for 24 hrs by H and E staining based analysis; assay type: organism-based; conditions: in vivo
[32] = Toxicity in KM mouse assessed as damage in heart upto 40 mg/kg, ip measured for 24 hrs by H and E staining based analysis; assay type: organism-based; conditions: in vivo
[33] = Toxicity in KM mouse assessed as damage in liver upto 40 mg/kg, ip measured for 24 hrs by H and E staining based analysis; assay type: organism-based; conditions: in vivo
[34] = Toxicity in KM mouse assessed as damage in lung upto 40 mg/kg, ip measured for 24 hrs by H and E staining based analysis; assay type: organism-based; conditions: in vivo
[35] = Toxicity in KM mouse assessed as damage in kidney upto 40 mg/kg, ip measured for 24 hrs by H and E staining based analysis; assay type: organism-based; conditions: in vivo
Staphylococcus aureus [36] = assay: Antibacterial activity against Staphylococcus aureus ATCC29213 infected in mouse model assessed as uniform smooth skin at 5 to 10 mg/kg, sc measured after 24 hrs; assay type: functional, organism-based; conditions: dose 5-10 mg/kg
Staphylococcus aureus [37] = assay: Antibacterial activity against Staphylococcus aureus ATCC29213 infected in mouse model assessed as reduction in abscesses size at 5 to 10 mg/kg, sc measured after 24 hrs; assay type: functional, organism-based; conditions: dose 5-10 mg/kg
Staphylococcus aureus [38] = assay: Antibacterial activity against Staphylococcus aureus ATCC29213 infected in mouse model assessed as reduction in inflammatory factors in skin at 5 to 10 mg/kg, sc measured after 24 hrs by H and E staining based analysis; assay type: functional, organism-based; conditions: dose 5-10 mg/kg
Staphylococcus aureus [39] = assay: Antibacterial activity against Staphylococcus aureus ATCC29213 infected in mouse model assessed as bacterial concentration at 5 mg/kg, sc measured after 24 hrs (reference value: 10^10.13 CFU/g); assay type: functional
Staphylococcus aureus [40] = assay: Antibacterial activity against Staphylococcus aureus ATCC29213 infected in mouse model assessed as bacterial load reduction in abscesses at 10 mg/kg, sc measured after 24 hrs relative to control; assay type: functional; design: scale not given: the % may be the effect or the level left
Staphylococcus aureus [41] = assay: Antibacterial activity against Staphylococcus aureus ATCC29213 infected in mouse model assessed as bacterial load in abscesses at 5 mg/kg, sc measured after 24 hrs; assay type: functional
Staphylococcus aureus [42] = assay: Antibacterial activity against Staphylococcus aureus ATCC29213 infected in mouse model assessed as bacterial load in abscesses at 10 mg/kg, sc measured after 24 hrs; assay type: functional

## CCCCCCCNC(=O)C[N+](C)(C)CCCCOc1cc(C)ccc1C(C)C.[Br-]
Staphylococcus aureus [1]
  Activity: Active
[2]
  Activity: Non-Toxic
Staphylococcus aureus [3]
  MIC: 0.5 µg/mL
Enterococcus faecalis [4]
  MIC: 1 µg/mL
Enterococcus
  MIC: 2 µg/mL
Escherichia coli [5]
  MIC: 2 µg/mL
Pseudomonas aeruginosa [6]
  MIC: 8 µg/mL
Pseudomonas aeruginosa [7]
  Activity: 22.3%
Staphylococcus aureus [8]
  Activity: Dose-Dependent Effect
Escherichia coli [9]
  Activity: Dose-Dependent Effect
Staphylococcus aureus [10]
  Activity: >3 log10CFU/ml
Staphylococcus aureus [11]
  Activity: >99.9%
Escherichia coli [12]
  Activity: 100%
Escherichia coli [13]
  inhibition: Active
Escherichia coli [14]
  Activity: >4 log10CFU/ml
Escherichia coli [15]
  Activity: 99.99%
Escherichia coli [16]
  Activity: 100%
Staphylococcus aureus [17]
  Activity: Active
Staphylococcus aureus [18]
  Activity: Active
Enterococcus faecalis [19]
  Activity: Active
Enterococcus faecalis [20]
  Activity: Active
Staphylococcus aureus [21]
  Activity: Dose-Dependent Effect
Escherichia coli [22]
  Activity: Dose-Dependent Effect
Staphylococcus aureus [23]
  Activity: Active
Staphylococcus aureus [24]
  Activity: inactive
Staphylococcus aureus [25]
  Activity: Active
[26]
  selectivity ratio: 64
[27]
  selectivity ratio: 59
Escherichia coli [28]
  Activity: Active
[29]
  Activity: Non-Toxic
[30]
  Activity: Non-Toxic
[31]
  Activity: Non-Toxic
[32]
  Activity: Non-Toxic
[33]
  Activity: Non-Toxic
[34]
  Activity: Non-Toxic
[35]
  Activity: Non-Toxic
Staphylococcus aureus [36]
  Activity: Active
Staphylococcus aureus [37]
  Activity: Active
Staphylococcus aureus [38]
  Activity: Active
Staphylococcus aureus [39]
  Activity: ~1 10^7.99CFU/g
Staphylococcus aureus [40]
  Activity: 99.65%
Staphylococcus aureus [41]
  Activity: 2.14 log10CFU/g
Staphylococcus aureus [42]
  Activity: 2.46 log10CFU/g
